Experimental data reported in the supplement of paper PMC10307832.

How the values were obtained:
Experiment in all cases: relative viability (nuclei count vs DMSO), 5 days (fraction); higher = more cells survive
[1] = compound: C1/C(=C\C2=CC=CS2)/C(=O)/C(=C/C3=CC=CS3)/C1 + Nc1nc2[nH]cc(CCc3ccc(C(=O)N[C@@H](CCC(=O)O)C(=O)O)cc3)c2c(=O)[nH]1 [Pemetrexed] (partner 0.2 µM)
Procedure, shortened: (§1)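 After 5 days of treatment, lung cancer cells in 1536-well plates were fixed and stained in a single step (final 0.05% Triton X-100, 1% formaldehyde, 1 ug/ml Hoechst) and their nuclei counted on 4× images. Treatment had been applied by pin tool the day after seeding as one drug alone or as a fixed anchor-drug dose with five library-drug doses (not always all listed) in √10 steps. Relative viability is the nuclei count of treated wells divided by that of vehicle wells, and values are medians of duplicate plates.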

[2] = compound: C[C@]12O[C@H](C[C@]1(O)CO)n1c3ccccc3c3c4c(c5c6ccccc6n2c5c31)CNC4=O [Lestaurtinib] + CC(=O)Nc1cccc(-n2c(=O)n(C3CC3)c(=O)c3c(Nc4ccc(I)cc4F)n(C)c(=O)c(C)c32)c1 [Trametinib] (partner 0.02 µM)
Procedure, shortened: as §1

[3] = compound: C1/C(=C\C2=CC=CS2)/C(=O)/C(=C/C3=CC=CS3)/C1 + Nc1ncn([C@H]2C[C@H](O)[C@@H](CO)O2)c(=O)n1 [Decitabine] (partner 2 µM)
Procedure, shortened: as §1

[4] = compound: C1/C(=C\C2=CC=CS2)/C(=O)/C(=C/C3=CC=CS3)/C1 + NC(=O)Nc1cc(-c2cccc(F)c2)sc1C(=O)N[C@H]1CCCNC1 [AZD7762] (partner 0.2 µM)
Procedure, shortened: as §1

Row | Cell Line | relative viability ([1]; first compound 0.2 µM) | relative viability ([1]; first compound 0.6325 µM) | relative viability ([1]; first compound 2 µM) | relative viability ([1]; first compound 6.325 µM) | relative viability ([1]; first compound 20 µM) | relative viability ([2]; first compound 0.005 µM) | relative viability ([2]; first compound 0.01581 µM) | relative viability ([2]; first compound 0.05 µM) | relative viability ([2]; first compound 0.1581 µM) | relative viability ([2]; first compound 0.5 µM) | relative viability ([3]; first compound 0.2 µM) | relative viability ([3]; first compound 0.6325 µM) | relative viability ([3]; first compound 2 µM) | relative viability ([3]; first compound 6.325 µM) | relative viability ([3]; first compound 20 µM) | relative viability ([4]; first compound 0.2 µM) | relative viability ([4]; first compound 0.6325 µM) | relative viability ([4]; first compound 2 µM) | relative viability ([4]; first compound 6.325 µM) | relative viability ([4]; first compound 20 µM)
1 | NCI-H23 | 0.781 | 0.641 | 0.859 | 0.453 | 0.71 | 0.377 | 0.455 | 0.35 | 0.408 | 0.225 | 0.32 | 0.293 | 0.314 | 0.34 | 0.285 | 0.25 | 0.342 | 0.294 | 0.244 | 0.175
2 | NCI-H322M | 0.628 | 0.642 | 0.681 | 0.503 | 0.626 | 0.507 | 0.567 | – | 0.512 | 0.672 | 0.654 | 0.63 | 0.743 | 0.654 | 0.678 | 0.491 | 0.58 | 0.484 | 0.518 | 0.521
3 | NCI-H358 | 0.213 | 0.207 | 0.171 | 0.191 | 0.177 | 0.139 | 0.119 | 0.157 | 0.103 | 0.0891 | 0.217 | 0.207 | 0.212 | 0.203 | 0.192 | 0.643 | 0.53 | 0.593 | 0.444 | 0.572
4 | NCI-H441 | 0.273 | 0.261 | 0.264 | 0.27 | 0.264 | 0.458 | 0.441 | 0.346 | 0.389 | 0.34 | 0.265 | 0.267 | 0.247 | 0.234 | 0.414 | 1.35 | 1.22 | 1.29 | 1.01 | 1.13
5 | NCI-H460 | 0.0622 | 0.0731 | 0.0616 | 0.0608 | 0.0583 | 0.237 | 0.201 | 0.144 | 0.142 | 0.0705 | 0.454 | 0.548 | 0.481 | 0.473 | 0.449 | 0.684 | 0.595 | 0.634 | 0.618 | 0.609
6 | NCI-H522 | 1.04 | 0.916 | 1.17 | 0.988 | 0.957 | 0.786 | 0.786 | 0.752 | 0.701 | 0.537 | 0.738 | 0.753 | 0.722 | 0.673 | 0.604 | 0.936 | 0.809 | 0.822 | 0.9 | 0.94
7 | NCI-H596 | 0.5 | 0.477 | 0.527 | 0.526 | 0.505 | 0.691 | 0.842 | 0.848 | 0.993 | 0.845 | 1.04 | 1.13 | 0.992 | 1.05 | 1.02 | 1.12 | 1.12 | 1.13 | 0.659 | 1.02
8 | NCI-H647 | 0.19 | 0.158 | 0.204 | 0.158 | 0.213 | 0.478 | 0.41 | 0.22 | 0.29 | 0.169 | 0.43 | 0.424 | 0.32 | 0.441 | 0.357 | 0.504 | 0.471 | 0.446 | 0.445 | 0.592
9 | NCI-H650 | 0.813 | 1.02 | 0.948 | 0.941 | 0.858 | 0.88 | 1.03 | 0.886 | 0.522 | 0.34 | 0.311 | 0.293 | 0.293 | 0.307 | 0.306 | 1.14 | 0.952 | 0.897 | 0.937 | 1.11
10 | NCI-H838 | 0.249 | 0.256 | 0.261 | 0.212 | 0.242 | 0.559 | 0.497 | 0.486 | 0.333 | 0.0966 | 0.42 | 0.473 | 0.468 | 0.448 | 0.449 | 0.967 | 0.949 | 0.933 | 0.875 | 0.841
11 | NCI-H1355 | 1.06 | 0.922 | 1 | 0.96 | 0.971 | 0.481 | 0.435 | 0.359 | 0.318 | 0.285 | 0.369 | 0.388 | 0.319 | 0.304 | 0.325 | 0.69 | 0.835 | 0.804 | 0.559 | 0.622
12 | NCI-H1395 | 0.889 | 0.912 | 1.08 | 0.819 | 0.971 | 1.17 | 0.896 | 0.927 | 0.923 | 0.608 | 0.729 | 0.777 | 0.754 | 0.679 | 0.729 | 0.36 | 0.356 | 0.405 | 0.411 | 0.414
13 | NCI-H1437 | 0.286 | 0.362 | 0.353 | 0.252 | 0.311 | 0.569 | 0.684 | 0.56 | 0.691 | 0.603 | 0.547 | 0.521 | 0.508 | 0.518 | 0.612 | 1.14 | 1.2 | 1.19 | 1.03 | 1.1
14 | NCI-H1648 | 0.859 | 0.718 | 0.79 | 0.609 | 0.569 | – | 0.728 | – | 0.458 | 0.367 | 0.489 | 0.478 | 0.603 | 0.45 | 0.432 | 0.778 | 0.622 | 0.571 | 0.601 | 0.511
15 | NCI-H1651 | 0.582 | 0.666 | 0.778 | 0.495 | 0.58 | 0.86 | 0.919 | 0.887 | 0.832 | 0.77 | 0.616 | 0.646 | 0.868 | 0.357 | 0.587 | 0.474 | 0.511 | 0.486 | 0.505 | 0.45
16 | NCI-H1666 | 0.82 | 0.84 | 0.877 | 0.791 | 0.813 | 0.898 | 0.892 | 0.882 | 0.88 | 0.781 | 0.697 | 0.732 | 0.751 | 0.636 | 0.736 | 0.877 | 0.86 | 0.968 | 0.793 | 0.815
